Test results: patent US20250206718A1, “NITROGEN-CONTAINING HETEROCYCLIC DERIVATIVE INHIBITOR, PREPARATION METHOD THEREFOR AND USE THEREOF” (SHANGHAI HANSOH BIOMEDICAL CO., LTD., priority 2022, published 2025)

What was measured:
[1] = target: Ba/F3 EGFR L858R/T790M/C797S cells (Homo sapiens, UniProt P00533, T790M/C797S/L858R, cells depend on it); test: Cell proliferation inhibition (Cell Titer-Glo), Ba/F3 EGFR L858R/T790M/C797S; assay type: cell-based, mouse; conditions: 72 hours, CellTiter-Glo, read-out: Ba/F3 EGFR L858R_T790M_C797S IC50
Description: (§1) Experimental objective: The objective of this test example is to test the inhibitory activity of compounds on the proliferation of different EGFR C797S drug-resistant mutant cell lines Ba/F3 EGFR Del19/T790M/C797S, Ba/F3 EGFR L858R/T790M/C797S, and Ba/F3 EGFR Del19/C797S.
(§2) • Ba/F3 EGFR Del19/T790M/C797S cells were purchased from KYinno Biotechnology Co., Ltd.; • Ba/F3 EGFR Del19/C797S cells were purchased from CoBioer Biosciences Co., Ltd.; • Ba/F3 EGFR L858R/T790M/C797S cells were purchased from CoBioer Biosciences Co., Ltd.; • Cell Titer-Glo was purchased from Promega, with a catalog number of G7573; • RPMI 1640 was purchased from Gibco, with a catalog number of 22400089; • FBS was purchased from Gibco, with a catalog number of 10091148; • cell culture plates were purchased from Corning, with a catalog number of 3610.
(§3) The inhibitory activity of the compound on the proliferation of different EGFR C797S drug-resistant mutant cell lines was detected using the Cell Titer-Glo method. The different cell lines were cultured in RPMI 1640 complete culture medium containing 10% FBS under conditions of 37° C. and 5% CO2, the cells were collected by centrifugation when growing to a certain density, and adjusted to appropriate cell density after counting, the cells were spread on a white 96-well plate at 90 μL/well, and cultured in a 37° C., 5% CO2 incubator overnight, prepared compound solutions of different concentrations were added at 10 μL/well, corresponding solvent controls were set, and all wells were cultured in a 37° C., 5% CO2 incubator for 72 hours, 50 μL of CellTiter-Glo solution was added to each well, shook and mixed evenly, and incubated in the dark for 10 minutes, and a BioTek Synergy H1 microplate reader was used for reading.
(§4) The luminescence signal value was used to calculate the inhibition rate. Graphpad Prism software was used to fit the concentration and inhibition rate to a nonlinear regression curve, so as to obtain the IC50 value, as shown in the Table below for details.

[2] = target: Ba/F3 EGFR Del19/T790M/C797S cells (Homo sapiens, UniProt P00533, T790M/C797S, cells depend on it, form not given); test: Cell proliferation inhibition (Cell Titer-Glo), Ba/F3 EGFR Del19/T790M/C797S; assay type: cell-based, mouse; conditions: 72 hours, CellTiter-Glo, read-out: Ba/F3 EGFR Del19_T790M_C797S IC50
Description: as §1, §2, §3, §4

[3] = target: Ba/F3 EGFR Del19/C797S cells (Homo sapiens, UniProt P00533, C797S, cells depend on it, form not given); test: Cell proliferation inhibition (Cell Titer-Glo), Ba/F3 EGFR Del19/C797S; assay type: cell-based, mouse; conditions: 72 hours, CellTiter-Glo, read-out: Ba/F3 EGFR Del19/C797S IC50
Description: as §1, §2, §3, §4

[4] = Rat pharmacokinetic evaluation test; assay type: in vivo; conditions: Sprague-Dawley (SD), po, SD rats, male, p.o. 5 mg/kg, plasma
Experimental: SD rats were used as test animals to study the pharmacokinetic behavior of the compounds of the present invention in the rat body (plasma) after oral administration at a dose of 5 mg/kg.
2.2 Experimental Animals: 3 SD Rats/Group, Male, from Shanghai Jiesijie Experimental Animal Co., Ltd., Animal Production License Number (SCXK (Shanghai) 2013-0006 No. 311620400001794).
• Oral administration drug preparation: 20% solutol HS15 in 0.5% MC (methylcellulose)
20 g of a Solutol HS15 solid and 0.5 g of a MC solid powder were weighed and dissolved in 80 mL of purified water, and the mixture was vortexed, mixed until uniform, and subjected to ultrasound treatment to obtain a clear solution of 20% solutol HS15 in 0.5% MC.
The example compound was weighed into a 20 mL glass bottle, the solution was added thereto and the mixture was subjected to ultrasound treatment for 10 minutes to obtain a clear solution with a concentration of 0.5 mg/mL.
3 male SD rats were administered p.o. respectively after the 3 male SD rats were fasted overnight; the p.o. dose was 5 mg/kg and the administration volume was 10 mL/kg.
Blood collection: Before and after administration to rats, 0.2 mL of blood was collected from the jugular vein at 0.25, 0.5, 1, 2, 4, 6, 8 and 24 h, and placed in an EDTA-K2 anticoagulation tube, which was centrifuged at 6000 rpm at 4° C. for 6 min to separate plasma which was stored at −80° C.; the rats were fed 4 h after administration.
1) 160 μL of acetonitrile was added to 40 μL of plasma sample for precipitation, mixed and centrifuged at 3500×g for 5 to 20 min.
2) the treated supernatant solution was taken and subjected to LC/MS/MS to analyze the concentrations of the test compounds. LC/MS/MS analysis instrument: AB Sciex API 4000 Qtrap.
• Liquid phase conditions: Shimadzu LC-20AD pump • Chromatographic column: Agilent ZORBAX XDB-C18 (50×2.1 mm, 3.5 μm) mobile phase: liquid A is 0.1% aqueous formic acid solution, liquid B is acetonitrile • Flow rate: 0.4 mL/min • Elution time: 0-4.0 min, the eluent is as follows:
The main pharmacokinetic parameters were calculated using WinNonlin 6.1.

Ba/F3 EGFR L858R/T790M/C797S cells, sequence (P00533 whole entry T790M/C797S/L858R): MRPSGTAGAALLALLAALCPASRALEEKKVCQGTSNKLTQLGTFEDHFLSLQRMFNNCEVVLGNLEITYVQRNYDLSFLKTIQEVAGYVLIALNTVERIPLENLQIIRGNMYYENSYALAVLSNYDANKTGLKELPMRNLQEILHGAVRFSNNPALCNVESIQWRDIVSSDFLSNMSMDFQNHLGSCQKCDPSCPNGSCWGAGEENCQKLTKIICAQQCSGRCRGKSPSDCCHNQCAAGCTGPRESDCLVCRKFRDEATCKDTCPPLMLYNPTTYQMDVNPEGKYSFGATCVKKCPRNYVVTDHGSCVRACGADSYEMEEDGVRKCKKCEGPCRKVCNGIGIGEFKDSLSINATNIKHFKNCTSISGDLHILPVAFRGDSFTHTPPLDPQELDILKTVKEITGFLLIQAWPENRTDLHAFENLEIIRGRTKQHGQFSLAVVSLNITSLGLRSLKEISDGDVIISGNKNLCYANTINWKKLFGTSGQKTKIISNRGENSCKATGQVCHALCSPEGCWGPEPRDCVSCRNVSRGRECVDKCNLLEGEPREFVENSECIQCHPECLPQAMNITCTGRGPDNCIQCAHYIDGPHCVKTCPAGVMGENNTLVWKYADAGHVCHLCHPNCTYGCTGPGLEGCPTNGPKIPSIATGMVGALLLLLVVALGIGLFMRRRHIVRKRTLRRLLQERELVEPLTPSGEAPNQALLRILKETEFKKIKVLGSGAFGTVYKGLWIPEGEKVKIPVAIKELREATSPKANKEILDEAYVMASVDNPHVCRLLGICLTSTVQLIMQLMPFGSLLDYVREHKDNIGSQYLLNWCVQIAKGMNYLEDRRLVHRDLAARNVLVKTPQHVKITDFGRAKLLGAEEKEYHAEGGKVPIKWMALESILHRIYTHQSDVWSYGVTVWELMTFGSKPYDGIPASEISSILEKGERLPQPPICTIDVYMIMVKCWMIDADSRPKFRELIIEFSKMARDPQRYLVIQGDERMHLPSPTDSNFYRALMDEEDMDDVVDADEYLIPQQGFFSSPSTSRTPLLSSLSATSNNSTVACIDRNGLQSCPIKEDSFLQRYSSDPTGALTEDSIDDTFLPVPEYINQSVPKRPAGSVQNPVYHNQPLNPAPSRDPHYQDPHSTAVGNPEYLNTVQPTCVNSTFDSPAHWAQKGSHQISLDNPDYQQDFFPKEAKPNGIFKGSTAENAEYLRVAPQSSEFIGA
Ba/F3 EGFR Del19/T790M/C797S cells, sequence (P00533 with tags, fused parts or gaps DEL746-750/T790M/C797S, form open): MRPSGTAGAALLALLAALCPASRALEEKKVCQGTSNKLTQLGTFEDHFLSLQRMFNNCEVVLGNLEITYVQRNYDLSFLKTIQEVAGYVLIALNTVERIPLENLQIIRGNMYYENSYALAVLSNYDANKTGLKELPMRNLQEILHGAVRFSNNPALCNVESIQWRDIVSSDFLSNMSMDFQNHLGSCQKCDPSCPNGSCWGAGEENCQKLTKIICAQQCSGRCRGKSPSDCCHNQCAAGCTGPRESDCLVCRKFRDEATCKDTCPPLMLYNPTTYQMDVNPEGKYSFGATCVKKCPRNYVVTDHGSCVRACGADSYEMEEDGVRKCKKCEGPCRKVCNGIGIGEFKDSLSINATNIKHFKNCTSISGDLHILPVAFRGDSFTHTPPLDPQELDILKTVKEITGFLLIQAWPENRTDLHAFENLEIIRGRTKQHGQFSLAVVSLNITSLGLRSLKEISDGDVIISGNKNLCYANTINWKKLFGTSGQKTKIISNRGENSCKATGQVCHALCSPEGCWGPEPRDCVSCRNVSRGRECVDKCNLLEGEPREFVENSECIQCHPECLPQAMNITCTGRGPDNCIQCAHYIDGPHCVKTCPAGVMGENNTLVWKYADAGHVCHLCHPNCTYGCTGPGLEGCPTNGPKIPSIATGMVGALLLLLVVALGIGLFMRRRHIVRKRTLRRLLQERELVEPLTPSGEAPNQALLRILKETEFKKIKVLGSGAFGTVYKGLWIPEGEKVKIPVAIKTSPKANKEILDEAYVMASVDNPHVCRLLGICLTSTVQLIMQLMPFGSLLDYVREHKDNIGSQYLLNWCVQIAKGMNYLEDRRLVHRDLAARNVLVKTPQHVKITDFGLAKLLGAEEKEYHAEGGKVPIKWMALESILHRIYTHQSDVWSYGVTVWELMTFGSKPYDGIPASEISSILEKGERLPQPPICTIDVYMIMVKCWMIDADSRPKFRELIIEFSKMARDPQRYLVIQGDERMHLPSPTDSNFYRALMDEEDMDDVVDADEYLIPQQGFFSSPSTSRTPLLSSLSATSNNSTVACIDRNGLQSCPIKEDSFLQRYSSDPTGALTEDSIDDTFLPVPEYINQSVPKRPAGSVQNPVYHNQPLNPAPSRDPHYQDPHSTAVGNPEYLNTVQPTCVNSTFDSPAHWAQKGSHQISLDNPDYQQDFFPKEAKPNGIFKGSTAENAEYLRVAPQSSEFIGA
Ba/F3 EGFR Del19/C797S cells, sequence (P00533 with tags, fused parts or gaps DEL746-750/C797S, form open): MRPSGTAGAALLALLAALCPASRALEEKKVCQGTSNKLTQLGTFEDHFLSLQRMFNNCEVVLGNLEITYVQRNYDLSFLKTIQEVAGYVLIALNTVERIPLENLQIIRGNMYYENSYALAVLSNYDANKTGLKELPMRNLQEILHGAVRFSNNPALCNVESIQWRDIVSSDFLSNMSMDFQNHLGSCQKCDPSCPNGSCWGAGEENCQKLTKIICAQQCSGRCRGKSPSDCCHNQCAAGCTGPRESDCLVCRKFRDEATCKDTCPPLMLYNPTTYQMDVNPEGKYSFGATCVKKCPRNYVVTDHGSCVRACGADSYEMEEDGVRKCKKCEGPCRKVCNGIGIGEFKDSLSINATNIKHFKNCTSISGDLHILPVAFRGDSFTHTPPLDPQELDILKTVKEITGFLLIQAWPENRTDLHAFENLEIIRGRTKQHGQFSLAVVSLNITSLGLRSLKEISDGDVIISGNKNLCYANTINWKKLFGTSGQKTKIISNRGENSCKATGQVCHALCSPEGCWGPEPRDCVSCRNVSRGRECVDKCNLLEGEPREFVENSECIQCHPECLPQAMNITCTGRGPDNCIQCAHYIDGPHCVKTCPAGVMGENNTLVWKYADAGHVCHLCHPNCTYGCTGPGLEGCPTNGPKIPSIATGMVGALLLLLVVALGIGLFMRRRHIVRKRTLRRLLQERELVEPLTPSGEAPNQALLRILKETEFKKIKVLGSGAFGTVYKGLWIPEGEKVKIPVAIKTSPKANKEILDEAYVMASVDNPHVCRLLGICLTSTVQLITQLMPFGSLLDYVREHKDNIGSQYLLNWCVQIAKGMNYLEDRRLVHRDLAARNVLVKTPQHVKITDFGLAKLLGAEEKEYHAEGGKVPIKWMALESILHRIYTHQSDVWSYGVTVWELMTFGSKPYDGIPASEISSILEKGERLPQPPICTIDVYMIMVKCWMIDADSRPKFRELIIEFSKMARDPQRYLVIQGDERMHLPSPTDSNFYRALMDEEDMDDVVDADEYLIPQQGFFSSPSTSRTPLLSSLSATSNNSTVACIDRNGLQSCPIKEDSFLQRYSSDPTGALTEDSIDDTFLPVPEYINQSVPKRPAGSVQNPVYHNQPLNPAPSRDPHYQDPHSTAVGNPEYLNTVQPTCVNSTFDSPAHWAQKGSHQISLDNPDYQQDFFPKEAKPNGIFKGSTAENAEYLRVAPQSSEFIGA

| GI50 [1] | GI50 [2] | GI50 [3] | AUC(0-t) [4] | Cmax [4] | half-life [4] | SMILES |
| --- | --- | --- | --- | --- | --- | --- |
| 8.8 nM | 5.9 nM | 2.6 nM |  |  |  | CC(C)c1c(F)cc(N2C[C@H](NS(C)(=O)=O)[C@H]2C)c2cnc(Nc3ccnc(-c4cn(C)nc4Cl)n3)cc12 [Example 186, N-((2R,3S)-1-(3-((2-(3-chloro-1-methyl-1H-pyrazol-4-yl)pyrimidin-4-yl)amino)-6-fluoro-5-isopropylisoquinolin-8-yl)-2-methylazetidin-3-yl)methanesulfonamide] |
|  | 7.7 nM | 20 nM |  |  |  | [2H]C([2H])([2H])c1nn(C([2H])([2H])[2H])cc1-c1nccc(Nc2cc3c(C(C)C)ccc(N4C[C@H](CS(C)(=O)=O)[C@H]4C)c3cn2)n1 [Example 4, N-(2-(1,3-bis(methyl-d3)-1H-pyrazol-4-yl)pyrimidin-4-yl)-5-isopropyl-8-((2R,3S)-2-methyl-3-((methylsulfonyl)methyl)azabut-1-yl)isoquinolin-3-amine] |
|  | 4.5 nM | 7.8 nM |  |  |  | Cc1nn(C)cc1-c1nccc(Nc2cc3c(C(C)C)c(F)cc(N4C[C@H](N(C)S(C)(=O)=O)[C@H]4C)c3cn2)n1 [Example 127, N-((2R,3S)-1-(3-((2-(1,3-dimethyl-1H-pyrazol-4-yl)pyrimidin-4-yl)amino)-6-fluoro-5-isopropylisoquinolin-8-yl)-2-methylazetidin-3-yl)-N-methyl methanesulfonamide] |
| 14 nM | 7.1 nM | 11 nM |  |  |  | CC(C)c1c(F)cc(N2C[C@H](CS(C)(=O)=O)[C@H]2C)c2cnc(Nc3ccnc(-c4cn(C)nc4Cl)n3)cc12 [Example 120, N-(2-(3-chloro-1-methyl-1H-pyrazol-4-yl)pyrimidin-4-yl)-6-fluoro-5-isopropyl-8-((2R,3S)-2-methyl-3-((methanesulfonyl)methyl)azetidin-1-yl)isoquinolin-3-amine] |
| 13 nM | 3.3 nM | 6.5 nM |  |  |  | CC(C)c1ccc(N2C[C@H](NS(C)(=O)=O)[C@H]2C)c2cnc(Nc3ccnc(-c4cn(C)nc4Cl)n3)cc12 [Example 123, N-((2R,3S)-1-(3-((2-(3-chloro-1-methyl-1H-pyrazol-4-yl)pyrimidin-4-yl)amino)-5-isopropylisoquinolin-8-yl)-2-methylazetidin-3-yl)methanesulfonamide] |
| 13 nM | 5.1 nM | 5.1 nM |  |  |  | [2H]C([2H])([2H])n1cc(-c2nccc(Nc3cc4c(C(C)C)ccc(N5C[C@H](CS(C)(=O)=O)[C@H]5C)c4cn3)n2)c(Cl)n1 [Example 6, N-(2-(3-chloro-1-(methyl-d3)-1H-pyrazol-4-yl)pyrimidin-4-yl)-5-isopropyl-8-((2R,3S)-2-methyl-3-((methylsulfonyl)methyl)azetidin-1-yl)isoquinolin-3-amine] |
|  | 5 nM | 33 nM |  |  |  | CC(C)c1ccc(N2C[C@H](CS(C)(=O)=O)[C@H]2C)c2cnc(Nc3ccnc(-c4cn(CC(O)CF)nc4Cl)n3)cc12 (stereo partly drawn) [Example 172, 1-(3-chloro-4-(4-((5-isopropyl-8-((2R,3S)-2-methyl-3-((methanesulfonyl)methyl)azetidin-1-yl)isoquinolin-3-yl)amino)pyrimidin-2-yl)-1H-pyrazol-1-yl)-3-fluoropropan-2-ol] |
|  | 6.8 nM | 18 nM |  |  |  | Cc1nn(C)cc1-c1nccc(Nc2cc3c(C(C)C)c(F)cc(N4C[C@H](CS(C)(=O)=O)[C@H]4C)c3cn2)n1 [Example 125, N-(2-(1,3-dimethyl-1H-pyrazol-4-yl)pyrimidin-4-yl)-6-fluoro-5-isopropyl-8-((2R,3S)-2-methyl-3-((methanesulfonyl)methyl)azetidin-1-yl)isoquinolin-3-amine] |
|  | 4.5 nM | 12 nM | 1410 ng·h/mL | 287 ng/mL | 2.7 h | Cc1nn(C)cc1-c1nccc(Nc2cc3c(C(C)C)ccc(N4C[C@H](CS(C)(=O)=O)[C@H]4C)c3cn2)n1 [Example 1, N-(2-(1,3-dimethyl-1H-pyrazolyl-4-yl)pyrimidin-4-yl)-5-isopropyl-8-((2R,3S)-2-methyl-3-((methanesulfonyl)methyl)azabut-1-yl)isoquinolin-3-amine] |
|  | 7.6 nM | 33 nM |  |  |  | COC(C)Cn1cc(-c2nccc(Nc3cc4c(C(C)C)ccc(N5C[C@H](CS(C)(=O)=O)[C@H]5C)c4cn3)n2)c(Cl)n1 (stereo partly drawn) [Example 116A, N-(2-(3-chloro-1-(2-methoxypropyl)-1H-pyrazol-4-yl)pyrimidin-4-yl)-5-isopropyl-8-((2R,3S)-2-methyl-3-((methanesulfonyl)methyl)azetidin-1-yl)isoquinolin-3-amine] |
| 10 nM | 4.4 nM |  |  |  |  | CC(C)c1ccc(N2C[C@H](CS(C)(=O)=O)[C@H]2C)c2cnc(Nc3ccnc(-c4cn(C[C@@H]5CCO5)nc4Cl)n3)cc12 [Example 182, N-(2-(3-chloro-1-(((S)-oxetan-2-yl)methyl)-1H-pyrazol-4-yl)pyrimidin-4-yl)-5-isopropyl-8-((2R,3S)-2-methyl-3-((methanesulfonyl)methyl)azetidin-1-yl)isoquinolin-3-amine] |
| 15 nM | 4.5 nM | 6.2 nM |  |  |  | CC(C)c1c(F)cc(N2C[C@H](N(C)S(C)(=O)=O)[C@H]2C)c2cnc(Nc3ccnc(-c4cn(C)nc4Cl)n3)cc12 [Example 121, N-((2R,3S)-1-(3-((2-(3-chloro-1-methyl-1H-pyrazol-4-yl)pyrimidin-4-yl)amino)-6-fluoro-5-isopropylisoquinolin-8-yl)-2-methylazetidin-3-yl)-N-methyl methanesulfonamide] |
|  | 4 nM | 3.2 nM | 2170 ng·h/mL | 186 ng/mL | 2.7 h | CC(C)c1ccc(N2CC(N(C)S(C)(=O)=O)C2)c2cnc(Nc3ccnc(-c4cn(C)nc4Cl)n3)cc12 [Example 67, N-(1-(3-((2-(3-chloro-1-methyl-1H-pyrazol-4-yl)pyrimidin-4-yl)amino)-5-isopropylisoquinolin-8-yl)azetidin-3-yl)-N-methyl methanesulfonamide] |
|  | 8.1 nM | 5.9 nM |  |  |  | CC(C)c1cnc(N2CC(N(C)S(C)(=O)=O)C2)c2cnc(Nc3ccnc(-c4cn(C)nc4Cl)n3)cc12 [Example 130, N-(1-(6-((2-(3-chloro-1-methyl-1H-pyrazol-4-yl)pyrimidin-4-yl)amino)-4-isopropyl-2,7-diazanaphthalen-1-yl)azetidin-3-yl)-N-methyl methanesulfonamide] |
